Bridges are numbered along the chain shown (N, C = ends). Roman numbers before positions name the chains, in order. Where no end group is shown, it is not given here.
B1: NL1: recombinant rat neuroligin-1, soluble ectodomain (R&D systems) (protein, UniProt Q62765 46-697, looked up)
extracellular domain: QKLDDVDPLVTTNFGKIRGIKKELNNEILGPVIQFLGVPYAAPPTGEHRFQPPEPPSPWSDIRNATQFAPVCPQNIIDGRLPEVMLPVWFTNNLDVVSSYVQDQSEDCLYLNIYVPTEDVKRISKECARKPGKKICRKGDIRDSGGPKPVMVYIHGGSYMEGTGNLYDGSVLASYGNVIVITVNYRLGVLGFLSTGDQAAKGNYGLLDLIQALRWTSENIGFFGGDPLRITVFGSGAGGSCVNLLTLSHYSEGNRWSNSTKGLFQRAIAQSGTALSSWAVSFQPAKYARILATKVGCNVSDTVELVECLQKKPYKELVDQDVQPARYHIAFGPVIDGDVIPDDPQILMEQGEFLNYDIMLGVNQGEGLKFVENIVDSDDGVSASDFDFAVSNFVDNLYGYPEGKDVLRETIKFMYTDWADRHNPETRRKTLLALFTDHQWVAPAVATADLHSNFGSPTYFYAFYHHCQTDQVPAWADAAHGDEVPYVLGIPMIGPTELFPCNFSKNDVMLSAVVMTYWTNFAKTGDPNQPVPQDTKFIHTKPNRFEEVAWTRYSQKDQLYLHIGLKPRVKEHYRANKVNLWLELVPHLHNLNDISQYTSTTTKVPSTDITLRPTRKNSTPVTSAFPTAKQDDPKQQPSPFSVDQRDYSTELS
modifications: extracellular domain

Tests used:
WT and 5XFAD mice [1] = assay: Y-maze test; assay type: in vivo, mouse; conditions: 10 mg/kg s.c. three times a week for 10 weeks
Description: (§1) At the age of 2 months, 5XFAD and WT mice were injected subcutaneously (s.c.) with either neurolide (10 mg/kg) or saline in a volume of 0.1 ml/10 g of body weight three times a week for 10 weeks.
To estimate the effect of neurolide on spatial working memory, the Y-maze test was used, wherein the recording of alternation behavior was assessed. Mice were placed in the middle of the three-arm maze, joined with equal angle between all arms, and allowed to explore the maze freely for 8 min. The sequence and total number of entries into each arm were assessed in video recordings. Arm entry was considered completed when the hind paws of the mouse had been placed in the arm. An actual alternation was defined as entries into all three arms on consecutive choices. Percentage alternation was calculated as the ratio of actual to possible alternation (defined as total number of arm entries − 2) × 100, as follows: %Alternation=Number of alternations/Total arm entries-2×100.

WT and 5XFAD mice [2] = assay: Novel object recognition task; assay type: in vivo, mouse; conditions: 10 mg/kg s.c. three times a week for 10 weeks
Description: as §1
The novel object recognition assay is based on the innate tendency of animals to differentially explore novel and familiar objects and consists of habituation, training, short-term (2 h) and long-term (24 h) memory retention sessions. On day 1, the mice were habituated to the test area (a 35 × 35 cm box with a floor divided into 16 squares). Each mouse was placed into a box without objects and allowed to explore it freely for 5 min. During a training session, a mouse was placed in the test box and exposed to 2 identical nontransparent glass objects placed in the box. During 5 min, locomotion and exploration time for both objects were recorded. Exploration of an object was defined as pointing the nose to the object at a distance of ≤ 1 cm and/or touching it with the nose. Climbing or sitting on the object was not considered exploration. Short-term memory retention was evaluated 2 h after the training session, whereas long-term memory retention was evaluated 24 h after the training session. During both sessions, mice were exposed to the familiar object and to a novel object. The exploration time for the familiar and novel objects and locomotion were recorded for 5 min. Mice failing to explore one or both objects in the training trial were excluded from the statistical analysis.

5XFAD and WT mice = assay: Aβ plaque load, Thioflavin-S staining of brain sections; assay type: in vivo, mouse
Description: as §1
After 10 weeks of treatment, mice were transcardially perfused with 0.1 M PBS, pH 7.4 under deep pentobarbital anesthesia (intraperitoneal, 200 mg/kg). The left brain hemispheres were postfixed in 4% paraformaldehyde in PBS. The brain hemispheres were further dehydrated in ethanol, cleared, embedded in paraffin blocks and serially sectioned into 7-μm coronal sections through the entire brain hemisphere. Parallel series of sections were collected, consisting of 12 equally spaced Sects. (400 μm apart). One of the series was stained with 1% Thioflavin-S for histological evaluation of Aβ plaque formation. Another series was used for immunohistochemical staining of GFAP + astrocytes as described previously. Extracellular Aβ plaque load was assessed in cortex, hippocampus, striatum, thalamus, and hypothalamus. GFAP-positive astrocytes were assessed in motor cortex. Serial super images of whole-brain sections were acquired using an Olympus BX-51 microscope equipped with the Visiopharm Integrator System software (Visiopharm) and analyzed using the ImageJ software package. The pictures were converted to 8-bit images, and the area of interest was marked. The intensity threshold was fixed to fit Thioflavin-S or GFAP signal. The area, covered by Thioflavin-S or GFAP staining, was measured in selected regions.

rats = conditions: cited from earlier work
recombinant rat NL1 = target: T1, recombinant rat NL1 (Rattus norvegicus, UniProt Q62765); assay: Surface plasmon resonance binding to immobilized NL1; conditions: SPR, KD for Aβ1-42 versus KD for NX1β
T1 construct: the extracellular domain of NL1 was immobilized on a sensor chip; purchased R&D systems (Abingdon, UK)
Description: Binding analysis was performed on a Biacore 2000 SPR biosensor (GE Healthcare) at 25 °C using HBS-P (10 mM HEPES, pH 7.4, 150 mM NaCl, 0.005% [v/v] Surfactant P20) supplemented with 3 mM CaCl2 as a running buffer. Approximately 2000 Resonance Units (RU) of NL1 was immobilized on a CM4 sensor chip at a flow rate of 5 μl/min by amine coupling. Binding to serially diluted recombinant NX1β, used as a positive control, was performed as previously described. Aβ1-42 was dissolved in anhydrous DMSO to a stock concentration of 3.21 mM followed by serial dilution in running buffer. Peptide was injected into the chip, and binding experiments were performed at a flow rate of 20 μl/min, followed by regeneration of sensor chip with 10 μl of 15 mM NaOH and 150 mM NaCl. After subtraction of blank control, the binding curves were analyzed based on a nonlinear curve fitting using a 1:1 Langmuir binding model and the software package BIAevaluation 4 (GE Healthcare). The apparent equilibrium constant (KD) was calculated as kd/ka, in which ka and kd are the apparent association and dissociation constants, respectively.

[3] = 5XFAD mice, 10 mg/kg s.c. three times a week for 10 weeks, neurolide n = 11 versus saline n = 13

Molecule | Y-maze number of arms entered (WT and 5XFAD mice [1]; p-value for treatment 0.9532) | Y-maze alternation rate (WT and 5XFAD mice [1]; test at week 11) | recognition index, short-term memory (2 h) (WT and 5XFAD mice [2]; 5XFAD mice, versus vehicle, p < 0.05) | recognition index, long-term memory (24 h) (WT and 5XFAD mice [2]; WT and 5XFAD mice, same tendency as at 2 h) | recognition index, short-term memory (2 h) (WT and 5XFAD mice [2]; WT mice, vehicle higher than neurolide, p < 0.01) | average size of thioflavin-S-positive plaques in the cortex (5XFAD and WT mice; [3]) | fractional area of thioflavin-S-positive plaques in the cortex (5XFAD and WT mice; [3]) | plaque area or plaque size in other brain regions (5XFAD and WT mice; 5XFAD mice, hippocampus, striatum, thalamus, hypothalamus, versus saline) | plaques in WT brains (5XFAD and WT mice; WT mice, 10 mg/kg s.c. three times a week for 10 weeks) | spatial memory deficits induced by NMDAR-antagonist MK801 (rats) | spatial learning, social behavior, and locomotor activity (rats; healthy rats) | affinity constant KD of NL1 to Aβ, times lower compared to NX1β (recombinant rat NL1)
I: SEGNRWSNSTKGLFQRAKK-NH2 / II: SEGNRWSNSTKGLFQRAK / III: SEGNRWSNSTKGLFQRA / IV: SEGNRWSNSTKGLFQRA (amide I:18-IV:C, I:19-II:C, II:18-III:C; C-terminus assumed) [neurolide] | had no effect | had no effect | significantly enhanced | no longer statistically significant | impairs memory | significant increase | significant increase | no significant difference | no plaques | counteracted spatial memory deficits | had no effect | 
B1 |  |  |  |  |  |  |  |  |  |  |  | approximately 11 times

Reference: article PMC11790763, “A Peptide Motif Covering Splice Site B in Neuroligin-1 Binds to Aβ and Acts as a Neprilysin Inhibitor” (Molecular Neurobiology, 2024)
